The source of these data is patent publication US10759740B2, “Antibacterial agents” (Rutgers, The State University of New Jersey, priority 2016, dated 2020).

One assay relates to Escherichia coli O157:H7. Nature of the assay: Broth microdilution assay (MIC). The format is cell-based. The following applies: BHI broth, 37° C., 24 h, no visible growth. The procedure: (§1) From the frozen stock (−80° C.), bacteria were inoculated into brain-hear infusion (BHI) agar (Becton Dickinson, Franklin Lakes, N.J.) and propagated under aerobic conditions at 37° C. for 24 h. After the incubation, one colony of each bacterial strain was transferred to BHI broth (Becton Dickinson, Franklin Lakes, N.J.) and sub-cultured at least twice into BHI before being used in experiments.
(§2) The minimal inhibitory concentration (MIC) of CAms were identified using a broth microdilution assay modified from previous studies. Briefly, the stock solutions of CAMs were first prepared by dissolving in double-distilled water (ddH2O) and then diluted in BHI broth at pre-determined concentrations. Further serial 2-fold dilutions were performed in a 96-well microplate (Becton Dickinson, Franklin Lakes, N.J.) with BHI broth. The inoculum concentration was adjusted to 5×10^6 CFU/mL with ultraviolet-visible (UV-vis) spectroscopy at 600 nm. An equal volume (100 μL) of bacterial suspension was added to each microplate well with a final volume of 200 μL. Plates were incubated at 37° C. for 24 h under aerobic conditions. The lowest CAm concentration that yielded no visible growth was recorded as the MIC. Cetyltrimethylammonium bromide (CTAB), a cationic amphiphile, served as a positive control that could mimic the proposed bactericidal mechanism of the newly synthesized tartaric acid-based compounds.
(§3) CAms were evaluated against five selected pathogenic microorganisms, including Gram-positive bacteria (i.e., S. aureus and L. monocytogenes) and Gram-negative bacteria (i.e., E. coli, S. typhimurium, and P. aeruginosa), using a turbidity-based microdilution method. MICs were taken as the lowest concentrations that inhibited the visible bacterial growth. […] The higher MIC values for the Gram-negative bacteria could be attributed to the presence of an additional lipopolysaccharide layer, which forms a hydrophilic barrier that could prevent penetration of the highly hydrophobic CAms.
(Broth dilution looks for growth in wells or tubes with falling amounts of substance.)

Assay [1] has as its system Listeria monocytogenes Scott A. Nature of the assay: Broth microdilution assay (MIC). Format: cell-based. The settings on record: BHI broth, 37° C., 24 h, no visible growth. The procedure: as §1, §2, §3
Assay [2] concerns Pseudomonas aeruginosa ATCC 15442. Nature of the assay: Broth microdilution assay (MIC). The format is cell-based. The following applies: BHI broth, 37° C., 24 h, no visible growth. The protocol:
as §1, §2, §3

Assay [3] deals with Staphylococcus aureus ATCC 13565. Nature of the assay: Broth microdilution assay (MIC). The format is cell-based. The following applies: BHI broth, 37° C., 24 h, no visible growth. The procedure:
as §1, §2, §3

The subject of assay [4] is Mobiluncus curtisii ATCC 35241. Nature of the assay: MIC broth microdilution (Example 3). Format: cell-based. The following applies: planktonic, anaerobic. The protocol:
(§4) The antimicrobial activity of CAms was also tested against Peptostreptococcus anaerobius ATCC 27337, Mobiluncus curtisii ATCC 35241 and Prevotella bivia ATCC 29303, all of which, in addition to G. vaginalis, are the most commonly isolated anaerobes from BV-infected women. These anaerobes were maintained within the anaerobic chamber and transferred daily into fresh sBHI. To prepare a stock solution, the CAm compounds were dissolved in ddH2O and incubated at 37° C. with shaking at 250 rpm for 10 min. Then, the solution was serially diluted twofold with sBHI broth to determine the MIC and with BHIG broth to identify the MIC-B/MBC-B against planktonic and biofilm cells, respectively. According to Clinical and Laboratory Standards Institute (CLSI 2010), the MIC is defined as the lowest concentration of antimicrobial compound producing no visible growth or complete inhibition of bacterial growth during 24 h. To determine MIC values, the broth microdilution assay was performed according to Algburi et al. (Algburi et al., 2015. Path Dis 73(5)) with minor modifications. Briefly, the overnight-grown cells were diluted with their suitable culture medium to approach ˜10^6 CFU/ml. The number of bacterial cells was identified using spot plate method (Turovskiy et al., 2012. Infect Dis Obstet Gynecol 2012:284762). The CAms were serially diluted twofold with sBHI into a non-tissue culture 96-well microplate plate (Falcon, Corning Incorporated, Corning, N.Y., USA) resulting in a final volume of 100 μl for each well. Aliquots of 100 μl of the diluted cell suspension (˜10^6 CFU/ml) were added to each well of a microplate that was treated with different concentrations of CAms. To avoid culture medium evaporation, 75 μl of mineral oil (Sigma-Aldrich, St. Louis, Mo.) was added to each treated well. The microplate was then transferred to the plate reader (Model 550, Bio-Rad Laboratories, Hercules, Calif., USA) and incubated at 37° C. for 24-36 h. The kinetic reading was statistically analyzed, and the MIC and sub-MIC of each CAm compound were determined.

The test system of assay [5] is Peptostreptococcus anaerobius ATCC 27337. Nature of the assay: MIC broth microdilution (Example 3). Format: cell-based. The settings on record: planktonic, anaerobic. The protocol: as §4
Assay [6] concerns Prevotella bivia ATCC 29303. Put plainly: MIC broth microdilution (Example 3). The format is cell-based. The settings on record: planktonic, anaerobic. The protocol: as §4
A further assay has as its system L. rhamnosus biofilm. Put plainly: Minimum biofilm bactericidal concentration (MBC-B). Format: cell-based, Lactobacillus rhamnosus. The settings on record: pre-formed biofilm, ≥3 log reduction. The protocol: G. vaginalis ATCC 14019 strain was grown overnight in Brain Heart Infusion broth (Difco, Sparks, Md.) supplemented with 3% horse serum (sBHI) (JRH Biosciences, KS), while BHI supplemented with 1% glucose (BHIG) was used for biofilm formation assays. Each experiment using G. vaginalis was performed anaerobically (10% hydrogen, 5% carbon dioxide, and 85% nitrogen) within anaerobic glove boxes (Coy Laboratory Products, Inc., Grass Lake, Mich., USA). Three species of vaginal Lactobacillus were used in this study to evaluate the possible harmful effects of CAms on beneficial bacteria: Lactobacillus plantarum ATCC 39268, Lactobacillus rhamnosus 160 (provided by Dr. Aroutcheva, Rush University Medical Center) and Lactobacillus gasseri ATCC 33323; all were grown for 18-24 h in DeMan, Rogosa and Sharpe broth (MRS Difco B D, Franklin Lakes, N.J., USA) under aerobic conditions at 37° C. For lactobacilli biofilm formation, MRS broth supplemented with 1% glucose and 2% sucrose (Fisher Scientific, Waltham, Mass., USA) was utilized.
This assay was performed according to Algburi et al. (Algburi et al., 2015. Path Dis 73(5)) with minor modifications: the overnight-grown G. vaginalis was diluted to approximately 10^7 CFU/ml. For the biofilm formation assay, aliquots of 200 μl were added into a 96-well tissue culture microplate, sealed by amplification tape (Nalge Nunc International, Rochester, N.Y., USA) and incubated for 24-36 h at 37° C. After incubation, the planktonic cells were removed by gently washing the biofilm twice with 200 μl of fresh broth. The biofilm was then treated with 200 μl of a predetermined concentration of the tested compound. The microplate was incubated for 24 h at 37° C. under anaerobic conditions. After incubation, the antimicrobials (supernatant) were discarded and the biofilm was washed twice with fresh BHIG broth. The biofilm was then disrupted by vigorous pipetting, in order to determine the number of biofilm-associated cells using the spot plate method.

A value given as a limit tells only on which side of the number the result lay.

With `CCCCCCCCCC(=O)OC(C(=O)NCCN)C(OC(=O)CCCCCCCCC)C(=O)NCCN.Cl.Cl` (stereo not drawn) [8b], the “MIC E. coli (G−)” value in the assay on Escherichia coli O157:H7 amounted to 3.9 µg/mL. Moreover, the “MIC L. monocytogenes (G+)” value in assay [1] was found to be 1.9 µg/mL. Besides, the “MIC P. aeruginosa (G−)” value in assay [2] amounted to 3.9 µg/mL. For the same compound, the “MIC S. aureus (G+)” value in assay [3] came to 1.9 µg/mL. Moreover, in assay [4], the “MIC M. curtisii” value was 6.3 µM. Further, the “MIC Pep. anaerobius” value in assay [5] was determined as 3.1 µM. Besides, the “MIC P. bivia” value in assay [6] is 6.3 µM. Besides, the “MBC-B L. rhamnosus” value in the assay on L. rhamnosus biofilm is more than 810 µM.
For `CCCCCCCC(=O)OC(C(=O)NCCN)C(OC(=O)CCCCCCC)C(=O)NCCN.Cl.Cl` (stereo not drawn) [8a], the “MIC E. coli (G−)” value with Escherichia coli O157:H7 amounted to 62.5 µg/mL. Besides, the “MIC L. monocytogenes (G+)” value in assay [1] amounted to 31.2 µg/mL. Moreover, in assay [2], the “MIC P. aeruginosa (G−)” value was 31.2 µg/mL. Moreover, in assay [3], the “MIC S. aureus (G+)” value turned out to be 31.2 µg/mL. In assay [4], the “MIC M. curtisii” value was 93.1 µM. In addition, the “MIC Pep. anaerobius” value in assay [5] came to 13.9 µM. For the same compound, the “MIC P. bivia” value in assay [6] was determined as 111.6 µM. For the same compound, the “MBC-B L. rhamnosus” value in the assay on L. rhamnosus biofilm is more than 890 µM.
Turning to `CCCCCCCCCCOC(C(=O)NCCN)C(OCCCCCCCCCC)C(=O)NCCN.Cl.Cl` (stereo not drawn) [5b], the “MIC E. coli (G−)” value with Escherichia coli O157:H7 turned out to be 3.9 µg/mL. Moreover, in assay [1], the “MIC L. monocytogenes (G+)” value is 0.95 µg/mL. Moreover, the “MIC P. aeruginosa (G−)” value in assay [2] turned out to be 3.9 µg/mL. The “MIC S. aureus (G+)” value in assay [3] came to 0.95 µg/mL. In addition, in assay [4], the “MIC M. curtisii” value came out at 5.4 µM. In assay [5], the “MIC Pep. anaerobius” value stood at 1.6 µM. Further, in assay [6], the “MIC P. bivia” value turned out to be 6.6 µM. In addition, the “MBC-B L. rhamnosus” value against L. rhamnosus biofilm was more than 850 µM.
